Key:
E14.5 LSK cells = assay: Survival (AnnexinV) of LSK/HSC cells cultured with GFL/GFRα; assay type: cell-based, mouse; details: versus conventional medium / medium alone, FIG. 3d-e, FIG. 10c
Procedure: (§1) 10^6 E14.5 WT Lin^negcKit^pos cells were cultured in DMEM and starved for 2 hours. To test CREB phosphorilation upon GFL stimulation Lin^negcKit^poscells were stimulated 1 hour with 500 ng/ml of each GFL and co-receptor. LSK cells were purified by flow cytometry and stimulated overnight with GFL/GFRα combinations in order to determine Bcl2 and Bcl2l1 expression levels. For inhibition experiments cells were incubated 2 hours prior GFLs stimulation, to test CREB phosphorilation, or during overnight stimulation with GFLs, to determine Bcl2 and Bcl2l1 expression levels, with SB 202190 and PD98,059 from Sigma-Aldrich or Akt1/2, Akt Inhibitor VIII and CBP-CREB Interaction Inhibitor from Calbiochem. Lin^negcKit^pos cells were stimulated with GFL/GFRα for 120 hours and 2.5×10^5 CD45.2^posLin^negcKit^pos cells were sequentially analysed by flow cytometry and transplanted into lethally irradiated hosts with a radio-protective dose 2.5×10^5 CD45.1 BM cells. To detect Annexin V, 4×10^4 E14.5 WT or Ret^−/−Lin^negckit^pos cells per well were cultured overnight in DMEM alone or with GFL/GFRα. When analysed by flow cytometry haematopoietic progenitors were further stained with an LSK antibody cocktail.

RET [1] = assay: Flow cytometry of kinase/CREB phosphorylation in LSK cells upon GFL stimulation; assay type: cell-based, mouse; details: GFLs for 1 h, FIG. 3g
Procedure: Intracellular stainings were done using BrdU Flow Kit and anti-BrdU (3D4), 7AAD, anti-Ki-67 (B56), anti-S6 (pS235/pS236) (N7-548) and anti-Akt (pT308) (JI-223.371) from BD Pharmingen, anti-human RET (132507) from R&D Systems, anti-PIP3 (Z-P345) from Echelon Biosciences, anti-CREB (pS133) (87G3), anti-p38 (pT180/Y182) (28B10), anti-Akt (pS473) (D9E) and anti-ERK1/2 (pT202/pY204) (D13.14.4E) from Cell Signaling Technology.
10^6 E14.5 WT Lin^negcKit^pos cells were cultured in DMEM and starved for 2 hours. To test CREB phosphorilation upon GFL stimulation Lin^negcKit^poscells were stimulated 1 hour with 500 ng/ml of each GFL and co-receptor. LSK cells were purified by flow cytometry and stimulated overnight with GFL/GFRα combinations in order to determine Bcl2 and Bcl2l1 expression levels. […] Lin^negcKit^pos cells were stimulated with GFL/GFRα for 120 hours and 2.5×10^5 CD45.2^posLin^negcKit^pos cells were sequentially analysed by flow cytometry and transplanted into lethally irradiated hosts with a radio-protective dose 2.5×10^5 CD45.1 BM cells. […] When analysed by flow cytometry haematopoietic progenitors were further stained with an LSK antibody cocktail.

lethally irradiated mice = assay: Competitive transplantation of GFL pre-treated progenitors into lethally irradiated hosts; assay type: in vivo, mouse; details: FIG. 4e-g
Procedure: Mice: C57BL/6J (CD45.2 and CD45.1), Rag1^−/− (CD45.2 and CD45.1)^29, Vav1-iCre^11, Gfra1^−/−22, Gfra2^−/−24, Gfra3^−/−23, Ret^MEN2B20 and Ret^−/−9 were on a C57BL/6J genetic background. All mice strains were bred and maintained at IMM animal facility. Animal procedures were performed in accordance to national and institutional guidelines. Generation of Ret Conditional Knockout Mice: To generate mice harbouring a conditional Ret knock-out allele we engineered a targeting construct that firstly, included the introduction of a floxed 2.1 kb, Neomycin resistance (Neo^r) cassette under the control of the phosphoglycerate kinase-1 (PGK) promoter and a polyA tail (pA). This cassette (PGK-NEO^r-pA) was inserted approximately 4.5 kb upstream at the Xho I site of the pBluescript KS (pBS KS) vector that carried approximately 13 kb of the 5′ end of mouse Ret genomic locus flanking exon 1. […] Colony-Forming Units Assays: 5×10^3 E14.5 Lin^negcKit^pos cells MACS purified (MiltenyiBiotec) from WT, Ret^−/− or Ret^MEN2B were cultured in M3434 (Stem Cell Technologies) and scored at day 8 to 10 by flow cytometry and microscope analysis. 3×10^4 E14.5 Lin^negcKit^pos cells were MACS (MiltenyiBiotec) purified from WT, Ret^−/− or Ret^MEN2B and were injected into lethally irradiated mice (9Gy) and CFUs scored after 8 to 10 days by flow cytometry and microscope analysis. […]

RET [2] = assay: Bcl2 and Bcl2l1 expression (RT-PCR) in LSK cells upon GFL treatment; assay type: cell-based, mouse; details: overnight GFL/GFRα stimulation; FIG. 3h
Procedure: as §1, with “To detect Annexin V, 4×10^4 E14.5 WT or Ret^−/−Lin^negckit^pos cells per well were cultured overnight in DMEM alone or with GFL/GFRα.” left out
Real-time PCR analysis: RNA was extracted from cell suspension using RNeasy Mini Kit or RNeasy Micro Kit (Qiagen). […] Variance was analyzed using F-test. […] Kaplan-Meier survival curves were analyzed using a log rank test. […]

HSCs = assay: HSC expansion in culture with RET ligands (recovered LSKs and HSCs treated with GFLs for 4 days); assay type: cell-based, mouse; details: for HSC expansion in culture (true HSCs recovered): versus conventional medium only, FIG. 3d

glial cell-line derived neurotrophic factor (GDNF) ligands [GFLs]
LSK and HSC survival in culture (E14.5 LSK cells): efficiently increased LSK and HSC survival | LSK and HSC survival in culture (E14.5 LSK cells; listed as RET ligands): survive almost three times better | ERK1/2, PI3K/Akt phosphorylation in LSKs (RET [1]): stable | p38/MAP kinase and CREB phosphorylation in LSKs (RET [1]; FIG. 10e): rapid p38/MAP kinase and CREB phosphorylation | transplantation fitness and HSC engraftment (lethally irradiated mice; E14.5 LSKs treated with GFLs, transplanted with competitor CD45.1 BM, versus untreated): strikingly increased transplantation fitness and HSC engraftment | increase in transplantation efficiency of expanded HSCs (lethally irradiated mice; versus HSCs expanded in conventional medium): circa 300 fold | Bcl2/Bcl2l1 expression by LSKs (RET [2]): increased Bcl2/Bcl2l1 expression | differentiation of cells in expansion culture (HSCs; RET agonist treatment): do not alter the differentiation of cells | HSC expansion in culture (true HSCs recovered) (HSCs; listed as RET agonist): three times more true HSCs | HSC expansion in culture (true HSCs recovered) (HSCs; listed as RET ligands): three times higher | number of cells recovered in expansion culture (HSCs; versus current conventional medium): duplicate the number or cells recovered | increase of bona fide HSCs that maintain their stemness (HSCs; versus current state-of-the-art expansion methods): 20 fold

Source: patent US9821026B2, “Use of RET agonist molecules for haematopoietic stem cell expansion protocols and transplantation therapy and a RET agonist kit” (Instituto de Medicina Molecular, priority 2012, dated 2017)
